Data from article PMC2229574 (The Journal of General Physiology, 2003).
Values joined by “and” are separate entries in the source; they are usually repeats but may differ in a detail not shown here. Identical values can stand only once. Like-named read-outs stand apart in the source and are kept apart here.

Tests used:
mouse AChR αD97H [1] = target: T1, mouse AChR αD97H (Mus musculus, UniProt P02716+P04756+P20782, D117H); conditions: joint fit choline 1, 2 and 5 mM, Scheme I
mouse AChR αD97E [2] = target: T2, mouse AChR αD97E (Mus musculus, UniProt P02716+P04756+P20782, D117E); conditions: for L2: kinetic modeling
mouse AChR αD97F = mouse AChR αD97F (Mus musculus, UniProt P02716+P04756+P20782, D117F)
mouse AChR αD97Q = mouse AChR αD97Q (Mus musculus, UniProt P02716+P04756+P20782, D117Q)
mouse AChR αD97R = mouse AChR αD97R (Mus musculus, UniProt P02716+P04756+P20782, D117R)
Chain of mouse AChR αD97R (P04756 21-457 D117R): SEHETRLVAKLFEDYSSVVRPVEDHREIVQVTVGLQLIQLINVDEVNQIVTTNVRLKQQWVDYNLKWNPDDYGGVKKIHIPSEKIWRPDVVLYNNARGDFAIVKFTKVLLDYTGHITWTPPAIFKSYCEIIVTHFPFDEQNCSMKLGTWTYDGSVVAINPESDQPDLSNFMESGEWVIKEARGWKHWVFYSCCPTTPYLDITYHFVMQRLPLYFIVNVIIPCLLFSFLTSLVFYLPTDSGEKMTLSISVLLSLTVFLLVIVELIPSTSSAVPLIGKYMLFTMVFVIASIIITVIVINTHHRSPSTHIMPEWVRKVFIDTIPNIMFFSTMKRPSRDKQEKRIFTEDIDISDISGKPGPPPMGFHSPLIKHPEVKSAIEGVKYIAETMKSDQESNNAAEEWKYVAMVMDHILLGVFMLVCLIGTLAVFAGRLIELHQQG
Chain of mouse AChR αD97R (P09690 24-501 partner): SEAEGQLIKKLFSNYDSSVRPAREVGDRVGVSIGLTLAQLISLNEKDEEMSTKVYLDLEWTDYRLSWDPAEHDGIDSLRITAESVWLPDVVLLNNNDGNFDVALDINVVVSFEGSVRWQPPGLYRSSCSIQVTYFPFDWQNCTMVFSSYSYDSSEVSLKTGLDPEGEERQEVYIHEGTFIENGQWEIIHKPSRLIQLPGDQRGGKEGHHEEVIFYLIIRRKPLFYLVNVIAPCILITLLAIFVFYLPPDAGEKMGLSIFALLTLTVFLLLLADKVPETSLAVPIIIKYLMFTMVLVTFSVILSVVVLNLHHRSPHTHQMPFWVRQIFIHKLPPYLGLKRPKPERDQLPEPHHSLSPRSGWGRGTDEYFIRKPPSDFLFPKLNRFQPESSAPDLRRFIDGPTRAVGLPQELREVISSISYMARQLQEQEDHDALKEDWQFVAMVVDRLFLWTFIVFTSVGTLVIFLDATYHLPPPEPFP
Chain of mouse AChR αD97R (P02716 25-520): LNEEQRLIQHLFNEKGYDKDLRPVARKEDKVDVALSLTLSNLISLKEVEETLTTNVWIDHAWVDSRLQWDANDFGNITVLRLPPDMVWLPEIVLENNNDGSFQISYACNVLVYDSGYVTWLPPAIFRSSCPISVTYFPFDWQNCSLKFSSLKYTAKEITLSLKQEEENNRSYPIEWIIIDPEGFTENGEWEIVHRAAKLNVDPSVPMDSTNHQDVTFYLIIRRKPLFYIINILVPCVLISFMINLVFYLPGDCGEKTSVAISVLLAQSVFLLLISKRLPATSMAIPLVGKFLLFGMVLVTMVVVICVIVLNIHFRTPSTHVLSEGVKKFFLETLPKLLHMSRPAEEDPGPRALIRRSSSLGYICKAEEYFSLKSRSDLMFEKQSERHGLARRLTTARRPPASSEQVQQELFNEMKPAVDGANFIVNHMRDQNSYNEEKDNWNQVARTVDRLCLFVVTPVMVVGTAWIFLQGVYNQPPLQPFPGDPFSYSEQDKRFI
Chain of mouse AChR αD97R (P20782 21-493, stated change not applied): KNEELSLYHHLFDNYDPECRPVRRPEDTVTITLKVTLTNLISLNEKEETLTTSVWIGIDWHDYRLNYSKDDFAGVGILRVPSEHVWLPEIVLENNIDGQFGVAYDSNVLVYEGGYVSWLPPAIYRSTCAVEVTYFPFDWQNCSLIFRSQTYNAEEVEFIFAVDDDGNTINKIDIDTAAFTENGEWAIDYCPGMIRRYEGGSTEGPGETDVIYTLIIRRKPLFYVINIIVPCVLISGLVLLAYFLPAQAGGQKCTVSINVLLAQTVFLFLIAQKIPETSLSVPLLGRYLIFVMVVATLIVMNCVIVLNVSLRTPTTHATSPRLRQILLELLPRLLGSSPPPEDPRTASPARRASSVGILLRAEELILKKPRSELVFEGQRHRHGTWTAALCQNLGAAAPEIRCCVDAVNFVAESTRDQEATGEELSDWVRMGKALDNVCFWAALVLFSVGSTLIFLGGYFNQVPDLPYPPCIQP

mouse AChR αD97A = mouse AChR αD97A (Mus musculus, UniProt P02716+P04756+P20782, D117A)
Chain of mouse AChR αD97A (P04756 21-457 D117A): as the sequence (P04756 21-457 D117R) above, with R97A counted along it
Chain of mouse AChR αD97A (P09690 24-501 partner): as the sequence (P09690 24-501 partner) above
Chain of mouse AChR αD97A (P02716 25-520): as the sequence (P02716 25-520) above
Chain of mouse AChR αD97A (P20782 21-493, stated change not applied): as the sequence (P20782 21-493, stated change not applied) above

[3] = target: mouse AChR β-subunit D97A (Mus musculus, UniProt P02716+P04756+P09690+P20782, D120A); conditions: 20 mM choline
[4] = target: mouse AChR β-subunit D97V (Mus musculus, UniProt P02716+P04756+P09690+P20782, D120V); conditions: 20 mM choline
[5] = target: mouse AChR β-subunit G98A (Mus musculus, UniProt P02716+P04756+P09690+P20782, G121A); conditions: 20 mM choline
[6] = target: mouse AChR β-subunit G98V (Mus musculus, UniProt P02716+P04756+P09690+P20782, G121V); conditions: 20 mM choline
[7] = target: mouse AChR δ-subunit N98V (Mus musculus, UniProt P02716+P04756+P20782, N122V); conditions: 20 mM choline
[8] = target: mouse AChR δ-subunit N98A (Mus musculus, UniProt P02716+P04756+P20782, N122A); conditions: 20 mM choline
[9] = target: mouse AChR δ-subunit D99A (Mus musculus, UniProt P02716+P04756+P20782, D123A); conditions: 20 mM choline
[10] = target: mouse AChR δ-subunit D99V (Mus musculus, UniProt P02716+P04756+P20782, D123V); conditions: 20 mM choline
[11] = target: mouse AChR ɛ-subunit D97A (Mus musculus, UniProt P02716+P04756+P20782, D117A); conditions: 20 mM choline
[12] = target: mouse AChR ɛ-subunit D97V (Mus musculus, UniProt P02716+P04756+P20782, D117V); conditions: 20 mM choline
[13] = test system: hybrid AChR (one wild-type α-subunit and one D97A α-subunit), hybrid 1; conditions: 20 mM choline
[14] = test system: hybrid AChR (one wild-type α-subunit and one D97A α-subunit), hybrid 2; conditions: 20 mM choline
[15] = target: wild-type mouse AChR (α2βδɛ) (Mus musculus, UniProt P02716+P04756+P20782); conditions: cited from earlier work
mouse AChR αD97H [16] = target: T1, mouse AChR αD97H; assay: cell-based
mouse AChR αD97E [17] = target: T2, mouse AChR αD97E; assay: cell-based
[18] = joint fit choline 1, 2 and 5 mM, Scheme I
[19] = read-out: k+ (association rate constant, single TBS)
[20] = read-out: k− (dissociation rate constant, single TBS)

α2 (mouse AChR αD97H [1]): 2,759 ± 149 s^−1
β2 (mouse AChR αD97H [1]): 3,189 ± 168 s^−1
β2 from saturation of the effective opening rate (mouse AChR αD97E [2]; choline, fit by Eq. 1): 2,875 s^−1
L2 (equilibrium gating constant) from Popen dose–response analysis (mouse AChR αD97E [2]; choline, fit by Eq. 2): 2.9 ± 0.7 and 2.9
L2 (mouse AChR αD97E [2]; choline, Scheme I): 1.3 ± 0.2
L2 (mouse AChR αD97E [2]; choline, Scheme I, listed as Choline): 1.31 ± 0.21
α2 (mouse AChR αD97E [2]; [18]): 2,293 ± 214 s^−1
β2 (mouse AChR αD97E [2]; [18]): 3,024 ± 131 s^−1
L2-ratio (mut/wt) (mouse AChR αD97F; choline): 31.52
L2-ratio (mut/wt) (mouse AChR αD97Q; choline): 62.56
L2-ratio (mut/wt) (mouse AChR αD97R; choline): 139.12
ΔΔG0 for channel gating, 0.59 ln(L2^wt/L2^mut) (mouse AChR αD97A; double αD97A mutant, 20 mM choline): 3.09 kcal mol^−1
L2-ratio (mut/wt) (mouse AChR αD97A; αD97A, choline): 168
L2-ratio (mut/wt) (mouse AChR αD97A; αD97A, choline, listed as Choline): 168.50
α2* (apparent channel closing rate constant) [3]: 1,320 s^−1
β2 (channel opening rate constant) [3]: 72 s⁻¹
α2* (apparent channel closing rate constant) [4]: 762 s⁻¹
β2 (channel opening rate constant) [4]: 85 s⁻¹
α2* (apparent channel closing rate constant) [5]: 861 s⁻¹
β2 (channel opening rate constant) [5]: 49 s⁻¹
α2* (apparent channel closing rate constant) [6]: 471 s⁻¹
β2 (channel opening rate constant) [6]: 80 s⁻¹
α2* (apparent channel closing rate constant) [7]: 437 s⁻¹
β2 (channel opening rate constant) [7]: 62 s⁻¹
α2* (apparent channel closing rate constant) [8]: 1,335 s^−1
β2 (channel opening rate constant) [8]: 36 s⁻¹
α2* (apparent channel closing rate constant) [9]: 630 s⁻¹
β2 (channel opening rate constant) [9]: 146 s⁻¹
α2* (apparent channel closing rate constant) [10]: 561 s⁻¹
β2 (channel opening rate constant) [10]: 117 s⁻¹
α2* (apparent channel closing rate constant) [11]: 645 s⁻¹
β2 (channel opening rate constant) [11]: 64 s⁻¹
α2* (apparent channel closing rate constant) [12]: 933 s⁻¹
β2 (channel opening rate constant) [12]: 103 s⁻¹
Kd (mouse AChR αD97H [16]; Kd (k−/k+), αD97H, choline, kinetic modeling, Scheme I): 2.8 mM and 2.84 mM
kon (mouse AChR αD97H [16]; [19]): 1.06e+06 M⁻¹ s⁻¹
koff (mouse AChR αD97H [16]; [20]): 2990 s⁻¹
Kd (mouse AChR αD97E [17]; Kd (k−/k+), αD97E, choline, kinetic modeling, Scheme I): 2.1 mM and 2.14 mM
kon (mouse AChR αD97E [17]; [19]): 2.84e+06 M⁻¹ s⁻¹
koff (mouse AChR αD97E [17]; [20]): 6070 s⁻¹
Compound: C[N+](C)(C)CCO [choline]
α2 (diliganded channel closing rate constant) (mouse AChR αD97E [2]; 0.4 mM choline): 2,076 s^−1
β2 (diliganded channel opening rate constant) (mouse AChR αD97E [2]; 20 mM choline): 2,967 s^−1
L2 (diliganded gating equilibrium constant, β2/α2) (mouse AChR αD97E [2]; choline): 1.429
α2 (diliganded channel closing rate constant) (mouse AChR αD97F; 0.4 mM choline): 1,831 s^−1
β2 (diliganded channel opening rate constant) (mouse AChR αD97F; 20 mM choline): 2,748 s^−1
L2 (diliganded gating equilibrium constant, β2/α2) (mouse AChR αD97F; choline): 1.501
α2 (diliganded channel closing rate constant) (mouse AChR αD97Q; 0.4 mM choline): 2,016 s^−1
β2 (diliganded channel opening rate constant) (mouse AChR αD97Q; 20 mM choline): 6,006 s^−1
L2 (diliganded gating equilibrium constant, β2/α2) (mouse AChR αD97Q; choline): 2.979
α2 (diliganded channel closing rate constant) (mouse AChR αD97R; 0.4 mM choline): 1,653 s^−1
β2 (diliganded channel opening rate constant) (mouse AChR αD97R; 20 mM choline): 10,951 s^−1
L2 (diliganded gating equilibrium constant, β2/α2) (mouse AChR αD97R; choline): 6.624
α2 (diliganded channel closing rate constant) (mouse AChR αD97A; αD97A, 0.4 mM choline): 1,719 s^−1
β2 (diliganded channel opening rate constant) (mouse AChR αD97A; αD97A, 20 mM choline): 13,793 s^−1
L2 (diliganded gating equilibrium constant, β2/α2) (mouse AChR αD97A; αD97A, choline): 8.023
ΔΔG0 for channel gating, 0.59 ln(L2^wt/L2^mut) [13]: 1.96 kcal mol^−1
ΔΔG0 for channel gating, 0.59 ln(L2^wt/L2^mut) [14]: 0.95 kcal mol^−1
choline dissociation from open AChRs (value subtracted from the α2 estimate) ([15]; ref Cymes et al., 2002): 200 s⁻¹
channel-opening rate constant, times slower than for ACh ([15]; wt AChRs, ref Zhou et al., 1999, Grosman and Auerbach, 2000a): 500 times
